Measured values taken from ChEMBL document CHEMBL1201862, “PubChem BioAssay data set” (2004).
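Exposure lasted 48 hours, with cells grown in 96-well plates and compounds tested at five concentrations. The concentration for 50% growth inhibition is given as GI50.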 Active and inactive are the calls of the source. Rule as the data show it: active = GI50 up to about 1.1 µM and inactive = higher.

Experiments:
Experiment in all cases: NCI tumour cell line growth inhibition, 48 h
[1] = system: UO-31
[2] = system: HCT-116
[3] = system: NCI-H522
[4] = system: COLO 205
[5] = system: SNB-19
[6] = system: NCI-H23
[7] = system: HOP-92
[8] = system: UACC-257
[9] = system: SW-620
[10] = system: SF-295
[11] = system: NCI-H460
[12] = system: LOX IMVI
[13] = system: SK-OV-3
[14] = system: CCRF-CEM
[15] = system: SNB-75
[16] = system: M14
[17] = system: CAKI-1

Measured: GI50

C=C1c2ccccc2N(S(=O)(=O)c2ccc(C)cc2)C12CCCCC2
inactive: [1] > 100 µM | [2] 33 µM | [3] 34.8 µM | [4] 43.5 µM | [5] > 100 µM | [6] 25.3 µM | [7] 4.27 µM | [8] 36 µM | [9] 59.3 µM | [10] 74.5 µM | [11] 86.7 µM | [12] 36.6 µM | [13] > 100 µM | [14] 25.2 µM | [15] 50.9 µM | [16] 94.4 µM

CCOc1ccc2c(c1)[n+]([O-])c(-c1ccccc1Cl)c(N)[n+]2[O-]
inactive: [1] > 100 µM | [2] > 100 µM | [3] 17.4 µM | [4] > 100 µM | [5] > 100 µM | [6] > 100 µM | [7] > 100 µM | [8] > 100 µM | [17] > 100 µM | [9] > 100 µM | [10] > 100 µM | [11] > 100 µM | [13] > 100 µM | [14] 48.2 µM | [15] 80 µM | [16] > 100 µM

O=C(O)c1cc2ccc(Cl)cc2c(O)c1C1=CCCCC1
inactive: [1] 34.8 µM | [2] 37.1 µM | [3] 29 µM | [4] 67.8 µM | [5] 39 µM | [6] 26.4 µM | [7] 23.2 µM | [8] 31.5 µM | [17] 33.2 µM | [9] 44.5 µM | [10] 32.3 µM | [11] 35.8 µM | [12] 33 µM | [13] 42.7 µM | [14] 41.7 µM | [15] 19.4 µM | [16] 43.7 µM

COc1c2c(c3c(c1C1OC(C)[C@@H](C)O1)CC(C)(C)O3)C(=O)c1ccccc1C2=O (some centres not stated)
inactive: [1] 36.7 µM | [2] 42.7 µM | [3] > 10 µM | [4] 35.1 µM | [5] > 100 µM | [6] 48.2 µM | [7] 16.9 µM | [8] > 100 µM | [17] 40.2 µM | [9] 23.9 µM | [10] 65.2 µM | [11] 37.6 µM | [12] 15 µM | [13] 13.9 µM | [14] 20.8 µM | [15] 46.5 µM | [16] 65 µM

O=C1NC2C=CN(Cc3ccccc3)C=C2C(=O)N2CCCC12 (configuration not stated)
inactive: [1] > 100 µM | [2] > 100 µM | [3] > 100 µM | [4] > 100 µM | [5] > 100 µM | [6] > 100 µM | [7] > 100 µM | [8] > 100 µM | [17] > 100 µM | [9] > 100 µM | [10] > 100 µM | [11] > 100 µM | [13] > 100 µM | [14] > 100 µM | [15] > 100 µM | [16] > 100 µM

Cc1cc(Cl)ccc1NC(=O)C1C(=O)C(=O)N(c2ccc(Cl)cc2C)C1=O (configuration not stated)
inactive: [1] 75.7 µM | [2] 43.8 µM | [3] 60.3 µM | [4] > 100 µM | [5] 21 µM | [6] 74.5 µM | [7] 14.9 µM | [8] > 100 µM | [17] > 100 µM | [9] > 100 µM | [10] 95.5 µM | [12] > 100 µM | [13] > 100 µM | [14] 55.6 µM | [15] > 100 µM | [16] 31.2 µM

COc1ccc(-c2cc(C(=O)Nc3cccc(C(F)(F)F)c3)nc(S)n2)cc1
inactive: [1] > 100 µM | [2] > 100 µM | [3] > 100 µM | [4] > 100 µM | [5] > 100 µM | [6] > 100 µM | [7] > 100 µM | [8] > 100 µM | [17] > 100 µM | [9] > 100 µM | [10] > 100 µM | [11] > 100 µM | [12] > 100 µM | [13] > 100 µM | [14] > 100 µM | [15] > 100 µM | [16] > 100 µM

N#C/C(=N\c1ccccc1N(C(=O)c1ccccc1)C(=O)c1ccccc1)c1ccccc1
inactive: [1] > 55.5 µM | [2] 6.43 µM | [3] 4.91 µM | [4] > 42 µM | [5] 3.62 µM | [6] > 62.5 µM | [7] 24.7 µM | [8] > 100 µM | [17] 47.6 µM | [9] 6.52 µM | [10] 8.89 µM | [11] 32.8 µM | [12] 27.2 µM | [13] > 100 µM | [14] 2.25 µM | [15] > 100 µM | [16] > 100 µM

COc1cc2c3c(c1OC)-c1ccccc1C(C(O)c1ccccc1)C3N(C)CC2 (configuration not stated)
inactive: [1] 19.1 µM | [2] 19.6 µM | [3] 18.2 µM | [4] 15.8 µM | [5] 88.5 µM | [6] 85.5 µM | [7] 53.3 µM | [8] 20.5 µM | [9] 34.3 µM | [10] 44.5 µM | [11] 27.3 µM | [12] 32.1 µM | [13] 37.3 µM | [14] 26.2 µM | [15] 40 µM | [16] 18.1 µM

O=C(/C=C\c1cccc2ccccc12)c1cccs1
inactive: [1] 12.9 µM | [2] 3.03 µM | [3] 2.52 µM | [4] 15.7 µM | [5] 12.6 µM | [6] 16.7 µM | [7] 11.9 µM | [8] 13.2 µM | [17] 6.31 µM | [9] 1.62 µM | [10] 15.6 µM | [11] 14 µM | [13] 15.5 µM | [14] 2.74 µM | [15] 23.6 µM | [16] 15.1 µM

CN(C)CCc1ccc(Cl)cc1Cl
inactive: [1] > 100 µM | [2] > 100 µM | [3] > 100 µM | [4] > 100 µM | [5] > 100 µM | [6] > 100 µM | [7] 62.2 µM | [8] > 100 µM | [17] > 100 µM | [9] > 100 µM | [10] > 100 µM | [11] > 100 µM | [12] > 100 µM | [13] > 100 µM | [14] > 100 µM | [15] 28.3 µM | [16] > 100 µM

O=C(O)c1c2c(cc3c(=O)cc(-c4ccccc4)oc13)CCCC2
inactive: [1] > 100 µM | [2] > 100 µM | [3] 71.4 µM | [4] > 100 µM | [5] > 100 µM | [6] > 100 µM | [7] > 100 µM | [8] > 100 µM | [9] > 100 µM | [10] > 100 µM | [11] > 100 µM | [12] > 100 µM | [13] > 100 µM | [14] > 100 µM | [15] 6.59 µM | [16] > 100 µM
